From ChEMBL document CHEMBL1145932, “Design and synthesis of novel bioactive peptides and peptidomimetics” (J Med Chem, 2003)
Calls of active or inactive are those of the source. The calls are words filed in the database; no cut-off is given here. Numbered stars: 1 amine (or outer) side, 2 acyl side, 3 side chain; on linkers, the order of the positions; unused ones are H or OH. Square brackets hold non-standard residues; d marks the D form. Peptide text beside a SMILES is read from it. * marks the point of attachment. ξ: configuration not given here. Doxorubicin(3'-N) = COc1cccc2c1C(=O)c1c(O)c3c(c(O)c1C2=O)C[C@@](O)(C(=O)CO)C[C@@H]3O[C@H]1C[C@H](N*)[C@H](O)[C@H](C)O1; X2 = COc1cccc2c1C(=O)c1c(O)c3c(c(O)c1C2=O)C[C@@](O)(C(=O)CO)C[C@@H]3O[C@H]1C[C@@H](N*)[C@H](O)[C@H](C)O1; X1 = COc1cccc2c1C(=O)c1c(O)c3c(c(O)c1C2=O)C[C@@](O)(C(=O)CO)C[C@@H]3OC1CC(N*)C(O)C(C)O1; ξPro(4R-OH) = O=C(O)C1C[C@@H](O)CN1; Glutaryl = O=C(CCCC(=O)[*:2])[*:1]; Hyp = O=C(O)[C@@H]1C[C@@H](O)CN1; Chg = N[C@H](C(=O)O)C1CCCCC1; Suc = O=C(CCC(=O)[*:2])[*:1]

Experiments:
Rattus norvegicus [1] = species: Rattus norvegicus; experiment: Relative potency for the inhibition of glucagon hormone release; assay type: functional
Rattus norvegicus [2] = species: Rattus norvegicus; experiment: In vitro relative potency for the inhibition of growth hormone release; assay type: functional
Rattus norvegicus [3] = species: Rattus norvegicus; experiment: Relative potency for the inhibition of insulin hormone release; assay type: functional
DuPro = experiment: In vitro effective concentration against DuPRO cancer cell line; assay type: functional, cell-based; details: Homo sapiens
[4] = Half life period was determined; assay type: ADME
Mus musculus [5] = experiment: In vivo percentage weight reduction of tumor was determined at a dose of 0.26 umol/kg of the compound; assay type: functional
Mus musculus [6] = experiment: In vivo maximum tolerated dose in nude mice was determined; assay type: functional
Mus musculus [7] = experiment: In vivo percentage reduction of prostate specific antigen (PSA) was determined at a dose of 0.26 umol/kg of the compound; assay type: functional, Prostate gland
LNCaP = experiment: In vitro effective concentration against LNCaP prostate cancer cell line; assay type: functional, cell-based; details: Homo sapiens
COLO 320 = experiment: In vitro effective concentration against COLO 320 cell line; assay type: functional, cell-based; details: Homo sapiens
T47D = experiment: In vitro effective concentration against T47D cell line; assay type: functional, cell-based; details: Homo sapiens
Mus musculus [8] = experiment: In vivo maximum tolerated dose was determined; assay type: functional
Rattus norvegicus [9] = species: Rattus norvegicus; experiment: Relative potency for the inhibition of growth hormone release; assay type: functional
Rattus norvegicus [10] = species: Rattus norvegicus; experiment: Relative potency for the inhibition of glucagon hormone release; Active; assay type: functional, organism-based

Q: Which Relative potency (Rattus norvegicus [1]) does the source give for `C[C@@H](O)[C@@H]1NC(=O)[C@H](CCCCN)NC(=O)[C@H](Cc2c[nH]c3ccccc23)NC(=O)[C@H](Cc2ccccc2)NC(=O)CN2CCC[C@H](NC1=O)C2=O` here?
A: < 0.07

Q: What about the Relative potency (Rattus norvegicus [2]) of the same compound?
A: < 0.005

Q: And the Relative potency (Rattus norvegicus [3])?
A: < 0.07

Q: For `C[C@@H](O)[C@@H]1NC(=O)[C@H](CCCCN)NC(=O)[C@H](Cc2c[nH]c3ccccc23)NC(=O)[C@H](Cc2ccccc2)NC(=O)CN2CCC[C@@H](NC1=O)C2=O`, which Relative potency (Rattus norvegicus [1]) is on record?
A: < 0.07

Q: And the Relative potency (Rattus norvegicus [2])?
A: < 0.005

Q: And the Relative potency (Rattus norvegicus [3])?
A: < 0.07

Q: With `COc1cccc2c1C(=O)c1c(O)c3c(c(O)c1C2=O)C[C@@](O)(C(=O)CO)C[C@@H]3O[C@H]1C[C@H](NC(=O)[C@H](CC(C)C)NC(=O)[C@H](CO)NC(=O)[C@H](CO)NC(=O)[C@H](CCC(N)=O)NC(=O)[C@H](Cc2ccc(O)cc2)NC(=O)[C@H](CO)NC(=O)[C@H](C)NC(=O)[C@H](CCCCN)NC(=O)[C@H](CC(N)=O)NC(=O)[C@H](C)NC(C)=O)[C@H](O)[C@H](C)O1` (Ac-ANKASYQSSL-{Doxorubicin(3'-N)}) as the compound, how does the EC50 (DuPro) read?
A: > 100 µM

Q: And the half-life [4]?
A: 100 min

Q: For `C[C@@H](O)[C@@H]1NC(=O)[C@H](CCCCN)NC(=O)[C@@H](Cc2c[nH]c3ccccc23)NC(=O)[C@H](Cc2ccccc2)NC(=O)[C@H](C)N(C)C(=O)[C@H](Cc2ccccc2)NC1=O`, which Relative potency (Rattus norvegicus [1]) is on record?
A: 16.7

Q: And the Relative potency (Rattus norvegicus [2])?
A: 3.5

Q: What about the Relative potency (Rattus norvegicus [3]) of the same compound?
A: 6

Q: Which results are given for `COc1cccc2c1C(=O)c1c(O)c3c(c(O)c1C2=O)C[C@@](O)(C(=O)CO)C[C@@H]3OC1CC(NC(=O)[C@H](CC(C)C)NC(=O)[C@H](CO)NC(=O)[C@H](CCC(N)=O)NC(=O)[C@@H](NC(=O)[C@H](CO)NC(=O)[C@H](C)NC(=O)[C@H](CCCCN)NC(C)=O)C2CCCCC2)C(O)C(C)O1` (stereo partly specified) (Ac-KAS[Chg]QSL-X1)?
A: EC50 (DuPro): > 100 µM; half-life [4]: 10 min

Q: For `CC[C@]1(O)CC[C@@H]2CN1CCC1c3ccccc3NC1[C@@H](c1cc3c(cc1OC)N(C)C1C34CCN3CC=C[C@](CC)(C34)[C@@H](O)[C@]1(O)C(=O)OC)[C@H]2C(=O)OC` (stereo partly specified), which Tumor weight reduction (Mus musculus [5]) is on record?
A: 16%

Q: And the MTD (Mus musculus [6])?
A: 0.26 µM/kg

Q: And the PSA (Mus musculus [7])?
A: 14%

Q: And the EC50 (LNCaP)?
A: 0.1 µM

Q: And the EC50 (COLO 320)?
A: 0.2 µM

Q: What about the EC50 (T47D) of the same compound?
A: 0.15 µM

Q: With `C[C@H](N)C(=O)NCC(=O)N[C@H]1CSSC[C@@H](C(=O)O)NC(=O)[C@H](CO)NC(=O)[C@H]([C@@H](C)O)NC(=O)[C@H](Cc2ccccc2)NC(=O)[C@H]([C@@H](C)O)NC(=O)[C@H](CCCCN)NC(=O)[C@H](Cc2c[nH]c3ccccc23)NC(=O)[C@H](Cc2ccccc2)NC(=O)[C@H](Cc2ccccc2)NC(=O)[C@H](CC(N)=O)NC(=O)[C@H](CCCCN)NC1=O` [SOMATOSTATIN] as the compound, how does the Relative potency (Rattus norvegicus [2]) read?
A: 1

Q: Which EC50 (DuPro) does the source give for `COc1cccc2c1C(=O)c1c(O)c3c(c(O)c1C2=O)C[C@@](O)(C(=O)CO)C[C@@H]3OC1CC(NC(=O)[C@H](CC(C)C)NC(=O)[C@H](CO)NC(=O)[C@H](CCC(N)=O)NC(=O)[C@@H](NC(=O)[C@H](CO)NC(=O)[C@H](C)NC(=O)C2C[C@@H](O)CN2C(C)=O)C2CCCCC2)C(O)C(C)O1` (stereo partly drawn) (Ac-[ξPro(4R-OH)]AS[Chg]QSL-X1) here?
A: 100 µM

Q: And the EC50 (LNCaP)?
A: 4.5 µM

Q: What about the half-life [4] of the same compound?
A: 20 min

Q: For `CC[C@]1(O)CC[C@@H]2CN1CCC1c3ccccc3NC1[C@@H](c1cc3c(cc1OC)N(C)C1C34CCN3CC=C[C@](CC)(C34)[C@@H](OC(=O)[C@@H]3CCCN3C(=O)[C@H](CO)NC(=O)[C@H](CO)NC(=O)[C@H](CCC(N)=O)NC(=O)[C@@H](NC(=O)[C@H](CO)NC(=O)[C@H](CO)NC(=O)[C@@H]3CC(O)CN3C(C)=O)C3CCCCC3)[C@]1(O)C(=O)OC)[C@H]2C(=O)OC` (stereo partly specified), which Tumor weight reduction (Mus musculus [6]) is on record?
A: 85%

Q: What about the PSA (Mus musculus [7]) of the same compound?
A: 99%

Q: What about the EC50 (LNCaP) of the same compound?
A: 1.6 µM

Q: What about the MTD (Mus musculus [8]) of the same compound?
A: 21.4 µM/kg

Q: What about the EC50 (COLO 320) of the same compound?
A: 14 µM

Q: And the EC50 (T47D)?
A: > 50 µM

Q: And the half-life [4]?
A: 12 min

Q: With `COc1cccc2c1C(=O)c1c(O)c3c(c(O)c1C2=O)C[C@@](O)(C(=O)CO)C[C@@H]3OC1CC(NC(=O)[C@H](CC(C)C)NC(=O)[C@H](CO)NC(=O)[C@H](CCC(N)=O)NC(=O)[C@H](Cc2ccc(O)cc2)NC(=O)[C@H](CO)NC(=O)[C@H](C)NC(=O)[C@H](CCCCN)NC(C)=O)C(O)C(C)O1` (stereo partly specified) (Ac-KASYQSL-X1) as the compound, how does the half-life [4] read?
A: 30 min

Q: With `COc1cccc2c1C(=O)c1c(O)c3c(c(O)c1C2=O)C[C@@](O)(C(=O)CO)C[C@@H]3OC1CC(NC(=O)[C@H](CC(C)C)NC(=O)[C@H](CO)NC(=O)[C@H](CCC(N)=O)NC(=O)[C@@H](NC(=O)[C@H](CO)NC(=O)[C@H](C)NC(=O)C2C[C@@H](O)CN2C(=O)CCC(=O)O)C2CCCCC2)C(O)C(C)O1` (stereo partly drawn) (Suc-[ξPro(4R-OH)]AS[Chg]QSL-X1) as the compound, how does the EC50 (DuPro) read?
A: 100 µM

Q: What about the EC50 (LNCaP) of the same compound?
A: 5.7 µM

Q: What about the half-life [4] of the same compound?
A: 55 min

Q: Which Relative potency (Rattus norvegicus [2]) does the source give for `C[C@H](O)[C@H]1NC(=O)[C@@H](Cc2ccccc2)N(C)C(=O)[C@@H](C)NC(=O)[C@@H](Cc2ccccc2)NC(=O)[C@@H](Cc2c[nH]c3ccccc23)CNC(=O)[C@H](CCCCN)NC1=O` here?
A: 0.88

Q: What does the source list for `COc1cccc2c1C(=O)c1c(O)c3c(c(O)c1C2=O)C[C@@](O)(C(=O)CO)C[C@@H]3O[C@H]1C[C@@H](NC(=O)[C@H](CC(C)C)NC(=O)[C@H](CO)NC(=O)[C@H](CCC(N)=O)NC(=O)[C@@H](NC(=O)[C@H](CO)NC(=O)[C@H](C)NC(=O)[C@@H]2C[C@@H](O)CN2C(=O)CCCC(=O)O)C2CCCCC2)[C@H](O)[C@H](C)O1` (Glutaryl-[Hyp]AS[Chg]QSL-X2)?
A: EC50 (DuPro): > 100 µM; EC50 (LNCaP): 5 µM; half-life [4]: 30 min

Q: With `C[C@@H](O)[C@@H]1NC(=O)[C@H](CCCCN)NC(=O)[C@@H](Cc2c[nH]c3ccccc23)NC(=O)[C@H](Cc2ccccc2)NC(=O)CN2CC[C@H](NC1=O)C2=O` as the compound, how does the Relative potency (Rattus norvegicus [1]) read?
A: < 0.07

Q: And the Relative potency (Rattus norvegicus [2])?
A: 0.004

Q: And the Relative potency (Rattus norvegicus [3])?
A: < 0.07

Q: Which results are given for `C[C@@H](O)[C@@H]1NC(=O)[C@H](CCCCN)NC(=O)[C@@H](Cc2c[nH]c3ccccc23)NC(=O)[C@H](Cc2ccccc2)NC(=O)[C@@H]2CCCN2C(=O)[C@H](Cc2ccccc2)N(C)C1=O`?
A: Relative potency (Rattus norvegicus [1]): 2; Relative potency (Rattus norvegicus [2]): 0.53; Relative potency (Rattus norvegicus [3]): 1.1

Q: Which Relative potency (Rattus norvegicus [2]) does the source give for `C[C@H](O)[C@H]1NC(=O)[C@@H](Cc2ccccc2)NC(=O)[C@@H](C)N(C)C(=O)[C@@H](Cc2ccccc2)NC(=O)[C@H](Cc2c[nH]c3ccccc23)CNC(=O)[C@@H](CCCCN)NC1=O` here?
A: 0.003

Q: Which results are given for `COc1cccc2c1C(=O)c1c(O)c3c(c(O)c1C2=O)C[C@@](O)(C(=O)CO)C[C@@H]3OC1CC(NC(=O)C(N)CC(C)C)C(O)C(C)O1` (stereo partly specified)?
A: EC50 (DuPro): 14 µM; EC50 (LNCaP): 6.7 µM

Q: With `C[C@@H](O)[C@@H]1NC(=O)[C@H](CCCCN)NC(=O)[C@@H](Cc2c[nH]c3ccccc23)NC(=O)[C@H](Cc2ccccc2)NC(=O)[C@@H]2CSSC[C@H](NC1=O)C(=O)NCCCCCCC(=O)N2` as the compound, how does the Relative potency (Rattus norvegicus [9]) read?
A: 1.24

Q: What does the source list for `C[C@@H](O)[C@@H]1NC(=O)[C@H](CCCCN)N(C)C(=O)[C@@H](Cc2c[nH]c3ccccc23)NC(=O)[C@H](Cc2ccccc2)NC(=O)[C@@H]2CCCN2C(=O)[C@H](Cc2ccccc2)NC1=O`?
A: Relative potency (Rattus norvegicus [2]): 1.6; Relative potency (Rattus norvegicus [3]): 0.5; Relative potency (Rattus norvegicus [10]): Active

Q: For `C[C@H](O)[C@H]1NC(=O)[C@@H](Cc2ccccc2)N(C)C(=O)[C@@H](C)NC(=O)[C@@H](Cc2ccccc2)NC(=O)[C@H](Cc2c[nH]c3ccccc23)CNC(=O)[C@@H](CCCCN)NC1=O`, which Relative potency (Rattus norvegicus [2]) is on record?
A: 0.27

Q: For `C[C@@H](O)[C@@H]1NC(=O)[C@H](CCCCN)NC(=O)[C@@H](Cc2c[nH]c3ccccc23)NC(=O)[C@H](Cc2ccccc2)NC(=O)CN2CC[C@@H](NC1=O)C2=O`, which Relative potency (Rattus norvegicus [1]) is on record?
A: < 0.2

Q: What about the Relative potency (Rattus norvegicus [2]) of the same compound?
A: 0.001

Q: What about the Relative potency (Rattus norvegicus [3]) of the same compound?
A: < 0.2

Q: With `CC[C@]1(O)CC[C@@H]2CN1CCC1c3ccccc3NC1[C@@H](c1cc3c(cc1OC)N(C)C1C34CCN3CC=C[C@](CC)(C34)[C@@H](OC(C)=O)[C@]1(O)C(=O)OC)[C@H]2C(=O)OC` (stereo partly specified) as the compound, how does the EC50 (LNCaP) read?
A: 0.5 µM
